These results are taken from paper PMC10518255, “A first-in-class pan-lysyl oxidase inhibitor impairs stromal remodeling and enhances gemcitabine response and survival in pancreatic cancer” (Nature Cancer, 2023).

Molecules are shown by their SMILES. “And” between values parts separate entries of the source, which are not always exact repeats. Equal entries are not always repeated.

The test relates to KPC CAFs. Description: 3D organotypic matrix contraction assay. The test is classed as cell-based, mouse. The arrangement: measured area of matrices: unit not given here. Particulars: for measured area of matrices: per replicate, n = 3. Here is the method:
Fig. 3 PXS-5505 inhibition of CAF remodeling in vitro. a, Quantitative PCR with reverse transcription (qRT–PCR) showing in vitro comparison of KPC CAF relative expression of lysyl oxidase family members compared to KPC CCs from the same model (n = 3 biologically independent samples). Comparisons were determined by 2^–∆∆Ct approach. b, Representative images of 3D organotypic matrix contraction assay at days 2, 6 and 12 in the absence (gray) or presence (pink) of PXS-5505 (30 µM). Scale bars, 5 mm. Comparison of measured area of matrices between control and PXS-5505 treatment groups over time (n = 3 technical samples examined over three biologically independent samples). Data are mean ± s.d. c, Concentration of immature divalent DHLNL and mature trivalent Pyr collagen crosslinks determined by LC–MS from control and PXS-5505-treated organotypic matrices at day 12 (n = 3 technical samples examined over two biologically independent samples). Data are mean ± s.d. […] Data are presented as mean ± s.d. […] Comparison of number of CCs invaded per field of view (FOV) as determined by H&E and PanCK staining (nine images taken from three technical samples from each of three biologically independent contracted matrices), normalized to control. Data are mean ± s.d. Scale bars, 100 μm. […] Source data
High-purity rat tail collagen for 3D organotypic assays was acid extracted following previously published methodology. The 12-day organotypic assays were carried out as described previously. In brief, 2 × 10^5 KPC CAFs were embedded in 2.5 ml 1.5 mg ml^−1 rat tail collagen and allowed to remodel for 12 days in a six-well plate in DMEM supplemented with 10% FBS and 1% penicillin–streptomycin in 21% O2/5% CO2 (Extended Data Fig. 4a). For human pancreatic cancer CAFs, 3.45 × 10^5 cells were embedded into 1.25 ml 1.5 mg ml^−1 rat tail collagen and allowed to remodel for 12 days in a 12-well plate in IMDM supplemented with 4 mM glutamine and 10% FBS in 21% O2/5% CO2.
Extended Data Fig. 4 PXS-5505 inhibits collagen cross-linking by PDAC CAFs in vitro resulting in decreased cancer cell invasion. a. Schematic of organotypic matrix remodeling assay whereby CAFs are embedded into a 3D collagen matrix and growth media supplemented with or without PXS-5505 to inhibit lysyl oxidase family activity b. Chemical structures of lysyl oxidase family catalyzed hydroxyallysine or allysine residues and the subsequent divalent and trivalent bonds that are formed that can be quantified by mass spectrometry. c. Representative images of 3D organotypic matrix contraction by human pancreatic cancer CAFs at days 2, 6 and 12 in the absence (gray) and presence (pink) of PXS-5505 (30 µM). Scale bars = 5 mm. […] Data presented as mean values +/− SD. d. […] Data presented as mean values +/− SD. Relative fold expression of LOXL family members compared to LOX were determined by 2^–∆∆Ct approach. f. Schematic of cancer cell invasion in a 3D organotypic matrix assay whereby cancer cells are seeded to the surface of a remodeled collagen plug and placed at an air–liquid interface and allowed to invade into the remodeled matrix. […] Scale bars = 100 μm. g. […] Representative images of 3D organotypic matrix contraction assay at days 2, 6 and 12 of control (gray) and presence of PXS-5120 (blue) and PXS-5505 (pink). Scale bars = 5 mm. Comparison of measured area of matrices between control, PXS-5120 and PXS-5505 treatment groups (n = 3) over time. i. […] Representative images of invasion of KPC cancer cells into a contracted organotypic matrix as determined by H&E staining. […] Source data

`Cl.Cl.NC/C=C(\F)CS(=O)(=O)c1cccc2cccnc12.O` [PXS-5505, (Z)-3-fluoro-4-(quinolin-8-ylsulfonyl)but-2-en-1-amine dihydrochloride monohydrate]: under “KPC CAFs, PXS-5505 30 µM, days 2, 6 and 12”, the matrix contraction result is reported as “no macroscopic effect on matrix contraction”. In addition, the “measured area of matrices” value runs as follows: (time 0 (unit of time not given)) 9.616; (time 1 (unit of time not given)) 9.616; (time 2 (unit of time not given)) 9.561 and 9.616 (2×); (time 3 (unit of time not given)) 9.0213 and 9.561 and 9.616; (time 4 (unit of time not given)) 6.466 and 5.808 and 8.601; (time 5 (unit of time not given)) 4.597 and 3.696 and 6.971. Further, the “measured area of matrices” value is 3.299 and 2.6 and 5.471 (time 6 (unit of time not given)); 2.954 and 2.216 and 4.409 (time 7 (unit of time not given)); 2.6 and 1.886 and 3.595 (time 8 (unit of time not given)); 1.96 and 1.5386 and 2.216 (time 9 (unit of time not given)); 1.327 and 1.266 and 1.583 (time 10 (unit of time not given)); 1.149 and 1.168 and 1.41 (time 11 (unit of time not given)). Besides, under “time 12 (unit of time not given)”, the “measured area of matrices” value was 1.075 and 1.112 and 1.188.
